Assay results from patent US10426815B2, “Prevention and treatment of itch with an MRGPR antagonist” (THE GENERAL HOSPITAL CORPORATION, priority 2015, dated 2019).
Entries after “also recorded” stand apart in the source; their conditions may differ.

Assays:
MrgX1 (human MRGPRX1) = target: T1, MrgX1 (human MRGPRX1) (Homo sapiens, UniProt Q96LB2); test: Calcium imaging of cells transfected with the GPCR (Table 1); format: cell-based
T1 construct: expressed in transfected cells; host or cells: HeLa cells, pcDNA3.1(-)
Method: Human NK1 cDNA was obtained from LIFE Technologies, PCR cloned with Xho I-Hind III ends and cloned into pcDNA3.1(−). Mouse NK2 and NK3 expression-ready vectors were obtained from […] (Piscataway, N.J.). All other Mrgprs (human MRGPRX1, human MRGPRX2, human MRGPRX3, human MRGPRX4, mouse MrgprA2a, mouse MrgprA2b, mouse MrgprA3, mouse MrgprA4, mouse MrgprA9, mouse MrgprA10, mouse MrgprB4 and mouse MrgprB5) were cloned by PCR from genomic DNAs and inserted into pcDNA3.1 (−).
10 μg of expression vector (human MRGPRX2, mouse MrgprA1 or NK1) and 10 μl of LIPOFECTAMINE 2000 transfection reagent were diluted into 0.5 ml of DMEM and separately left at room temperature (RT) for 5 min. They were then mixed and incubated at RT for 20 minutes prior to being added to HeLa cells. HeLa cells were grown to confluence, trypsinized and 1×10^6 cells were pelleted in a 15 ml tube by centrifugation at 1000 rpm for 5 minutes. The DMEM-LIPOFECTAMINE 2000-DNA mixture (1 ml) was then added to the cell pellet, suspended and incubated at RT for 5 minutes. 2 ml of complete DMEM with 10% FBS without antibiotics were added to the tube, mixed by inverting the tube, plated into a 96-well glass bottom plate at 50,000 cells/well, and placed in a 37° C. CO2 incubator for 3 hours. HeLa cells transfected with salmon sperm DNA were plated as a control. The medium was changed after 3 hours and left in the incubator. 24 hours after transfection, the medium in the wells was removed and 100 μl of complete DMEM containing 2 μM of FURA-2 were added to each well and left at room temperature in the dark for 1 hr.
Calcium imaging was performed immediately after loading cells with Fura-2, using a ZEISS Axiovert 200M microscope platform equipped with a flipping filter wheel for ratiometric imaging. Axiovision software, version 4.6 was used for calcium image analysis of the cells excited at 340 nm and 380 nm. Agonists were added at 15 seconds after the start of the excitation procedure. Antagonists were added five minutes before imaging with the agonists. Images were taken every 5 seconds, including at zero time, during a 90 second period or longer if required. The software later analyzed all images taken during each excitation period. Ratiometric changes were measured in 10-20 cells in each individual experiment. An average of the fluorescence of the cells in each image was calculated and plotted against time in seconds.

[1] = test system: dorsal root ganglion neurons from NK1 mice; test: DRG culture and calcium imaging, NK1 knockout mice; format: cell-based, mouse
Method: Cervical to lumbar dorsal root ganglia (DRG) from C57/B6 or NK1 mice (1 month old) were dissected and maintained in DMEM (GIBCO, Langley, Okla., USA), containing […] L-glutamine (FISHER […], Pittsburgh, Pa., USA), 10% heat inactivated fetal bovine serum (GIBCO, Langley, Okla., USA), 5000 U/ml penicillin and 5000 μg/ml streptomycin (FISHER […], Pittsburgh, Pa., USA). Enzymatic digestion was carried out with 1 mg collagenase in 1 ml dispase (ROCHE Applied Sciences, IN, USA), at 37° C. for 70 min. The collagenase/dispase solution was removed, and DRGs were washed and suspended in DMEM containing 125 U DNAse (SIGMA, St Louis, USA) within which the ganglia were mechanically triturated using fire-polished glass pipettes. […] Cells were evaluated using a NIKON Eclipse Ti inverted microscope equipped with an Exi Aqua CCD camera (QIMAGING, British Columbia, Canada). Ca^2+ flux fluorescence was measured as an […] ratio at 340 nm and 380 nm (F340/380) (Lambda DG4, Sutter Instruments, Novato, Calif., US). The 340/380 ratiometric images were analyzed using NIKON Elements AR Software (NIKON, Melville, N.Y. USA). […]

PAR2 = target: T2, PAR2 (Homo sapiens, UniProt P55085); test: Calcium imaging of cells transfected with the GPCR (Table 1); format: cell-based
T2 construct: expressed in transfected cells; host or cells: HeLa cells by analogy with the other receptors
T2 sequence (P55085 26-397): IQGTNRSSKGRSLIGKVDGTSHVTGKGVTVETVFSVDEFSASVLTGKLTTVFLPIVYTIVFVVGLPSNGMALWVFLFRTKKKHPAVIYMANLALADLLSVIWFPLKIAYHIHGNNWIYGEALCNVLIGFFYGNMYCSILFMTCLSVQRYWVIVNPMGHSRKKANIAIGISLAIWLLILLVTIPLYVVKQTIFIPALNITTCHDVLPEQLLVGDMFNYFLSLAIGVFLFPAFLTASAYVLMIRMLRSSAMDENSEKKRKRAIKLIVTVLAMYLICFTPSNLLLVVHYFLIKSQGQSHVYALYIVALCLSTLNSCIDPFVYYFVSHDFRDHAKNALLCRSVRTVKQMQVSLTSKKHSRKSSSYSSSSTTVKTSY

T1 sequence (Q96LB2 whole entry): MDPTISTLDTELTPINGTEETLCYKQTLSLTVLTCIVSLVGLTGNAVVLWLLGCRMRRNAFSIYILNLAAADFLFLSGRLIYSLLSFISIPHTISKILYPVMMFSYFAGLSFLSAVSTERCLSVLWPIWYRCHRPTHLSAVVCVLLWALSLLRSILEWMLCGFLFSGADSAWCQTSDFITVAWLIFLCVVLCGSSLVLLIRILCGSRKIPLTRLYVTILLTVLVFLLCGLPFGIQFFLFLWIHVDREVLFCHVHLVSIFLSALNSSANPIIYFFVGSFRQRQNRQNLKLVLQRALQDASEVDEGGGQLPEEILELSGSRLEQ

Substance: Boc-Gln-D-Trp(Formyl)-Phe benzyl ester trifluoroacetate [QWF]
- inhibition of human MRGPRX1 activation by chloroquine (CQ) (MrgX1 (human MRGPRX1); FIG. 7c: CQ 100 μM, QWF 100 μM): does not affect; also recorded: does not inhibit
- inhibition of SP-induced activation of NK1 knockout DRG neurons ([1]; QWF 1 μM): significantly diminished; also recorded: blocked; also recorded: inhibits; also recorded: significantly decreases
- inhibition of PAR2 activation by 48/80 (PAR2): antagonizes
- inhibition of PAR2 activation by SLIGRL (PAR2): not

Substance: SLIGRL: tethered hexapeptide ligand of mouse PAR2 (SEQ ID NO: 7)
- activation of PAR2 by the substance (in words) (PAR2): activates

Substance: SP: inflammatory undecapeptide neuropeptide of the tachykinin family, synthesized by GenScript
- activation of human MRGPRX1 by the substance (in words) (MrgX1 (human MRGPRX1); SP 10 μM (FIG. 9), chloroquine 100 μM (FIG. 7c)): does not activate
- activation of NK1 knockout DRG neurons by SP ([1]; cultured DRGs, calcium imaging): activated
